Data published in PubChem BioAssay (NCI).
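Grown in 96-well plates, cells were treated for 48 hours with each compound at five concentrations. Insufficient inhibition: endpoint recorded as highest concentration tested. TGI is the concentration that stops growth completely.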

Key:
Experiment in all cases: NCI-60 cell line screen, 48 h
ACHN renal = system: ACHN renal
OVCAR-3 ovarian = system: OVCAR-3 ovarian
COLO 205 colon = system: COLO 205 colon
MCF7 breast = system: MCF7 breast
MDA-N = system: MDA-N
NCI/ADR-RES ovarian = system: NCI/ADR-RES ovarian
EKVX NSCLC = system: EKVX NSCLC
SK-MEL-28 melanoma = system: SK-MEL-28 melanoma
NCI-H460 lung = system: NCI-H460 lung
UO-31 renal = system: UO-31 renal
IGROV1 ovarian = system: IGROV1 ovarian
HCT-15 colon = system: HCT-15 colon
SW-620 colon = system: SW-620 colon
MALME-3M melanoma = system: MALME-3M melanoma
NCI-H522 lung = system: NCI-H522 lung
MDA-MB-231 breast = system: MDA-MB-231 breast
TK-10 renal = system: TK-10 renal
UACC-257 melanoma = system: UACC-257 melanoma
UACC-62 melanoma = system: UACC-62 melanoma
RXF 393 renal = system: RXF 393 renal

Row | SMILES | TGI (ACHN renal) [µM] | TGI (OVCAR-3 ovarian) [µM] | TGI (COLO 205 colon) [µM] | TGI (MCF7 breast) [µM] | TGI (MDA-N) [µM] | TGI (NCI/ADR-RES ovarian) [µM] | TGI (EKVX NSCLC) [µM] | TGI (SK-MEL-28 melanoma) [µM] | TGI (NCI-H460 lung) [µM] | TGI (UO-31 renal) [µM] | TGI (IGROV1 ovarian) [µM] | TGI (HCT-15 colon) [µM] | TGI (SW-620 colon) [µM] | TGI (MALME-3M melanoma) [µM] | TGI (NCI-H522 lung) [µM] | TGI (MDA-MB-231 breast) [µM] | TGI (TK-10 renal) [µM] | TGI (UACC-257 melanoma) [µM] | TGI (UACC-62 melanoma) [µM] | TGI (RXF 393 renal) [µM]
1 | COc1ccc(NS(=O)c2ccccc2OC)cc1 (stereo not drawn) | > 100 | > 100 | 48.6 | 67.3 | > 100 | > 100 | > 100 | > 100 | > 100 | 28.2 | > 100 | > 100 | > 100 | 41.1 | 52.5 | > 100 | > 100 | > 100 | 20.5 | –
2 | COc1ccc([C@]23CCN(S(=O)(=O)c4ccc(C)cc4)[C@H]2[C@H](CO)C2(CC3)OCC(C)(C)CO2)cc1OC | > 100 | > 100 | > 100 | > 100 | > 100 | > 100 | > 100 | > 100 | > 100 | > 100 | > 100 | > 100 | > 100 | > 100 | > 100 | > 100 | > 100 | > 100 | > 100 | > 100
3 | O=S(=O)(O)c1cc(N=Nc2cc(S(=O)(=O)O)c3cccnc3c2O)ccc1/C=C/c1ccc(N=Nc2cc(S(=O)(=O)O)c3cccnc3c2O)cc1S(=O)(=O)O | > 100 | > 100 | > 100 | > 100 | > 100 | > 100 | > 100 | > 100 | > 100 | > 100 | > 100 | > 100 | > 100 | > 100 | > 100 | > 100 | > 100 | > 100 | > 100 | > 31.6
4 | CN(C)CC1(Cc2ccccc2)CCC(Cc2ccccc2)C1=O (stereo not drawn) | 29.7 | 16.2 | 19.4 | 24.9 | 25 | 40 | 31.8 | 26.6 | 30.6 | 30.7 | 24.1 | 13.3 | 11.1 | 27.2 | 7.59 | 24.3 | 26.7 | 29.1 | 32.5 | 27.5
5 | CC1(C)CCCOc2cccc(c2)OCCCC(C)(C)C1=O | > 100 | 69.1 | > 100 | > 100 | > 100 | > 100 | > 100 | > 100 | > 100 | > 100 | > 100 | > 100 | > 100 | 70.3 | 67.3 | > 100 | > 100 | – | 73.6 | 48.5
6 | CCOC(=O)CCC(NC(=O)c1ccc(Nc2cnc3ccc(C(F)(F)F)cc3n2)cc1)C(=O)OCC (stereo not drawn) | > 81.2 | > 100 | > 100 | > 100 | > 100 | 52.7 | > 89.6 | > 100 | > 100 | > 100 | > 47.2 | > 100 | > 100 | > 100 | > 100 | 25.2 | > 40.8 | > 100 | > 77.5 | > 90.2
7 | O=c1oc2ccccc2c(O)c1C(c1ccc2c(c1)Cc1ccccc1-2)c1c(O)c2ccccc2oc1=O | 45.6 | > 100 | 37.2 | 51.1 | 36.7 | > 100 | > 100 | 57.6 | 62.4 | 33.1 | > 100 | 57.2 | 90.9 | 71.4 | 49.2 | 57.9 | > 100 | > 100 | 49.8 | 35.5
8 | NC(=S)N/N=c1\cc(C(=O)Nc2ccc([N+](=O)[O-])cc2[N+](=O)[O-])oc2ccccc12 | > 100 | > 100 | > 100 | > 100 | > 100 | > 100 | > 100 | > 100 | > 100 | > 100 | > 100 | > 100 | > 100 | – | > 100 | > 100 | > 100 | > 100 | > 100 | > 100
9 | CCNc1nc2c(ncn2C2CC(O)C(COP(=O)(O)O)O2)c(=O)[nH]1 (stereo not drawn) | > 100 | > 100 | > 100 | > 100 | > 100 | > 100 | > 100 | > 100 | > 100 | – | > 100 | > 100 | > 100 | > 100 | > 100 | > 100 | > 100 | > 100 | > 100 | –
10 | O=C1CCCCCC1CC(Sc1ccccc1)Sc1ccccc1 (stereo not drawn) | > 100 | > 100 | > 100 | > 100 | > 100 | > 100 | > 100 | > 100 | > 100 | > 100 | > 100 | > 100 | > 100 | > 100 | > 100 | > 100 | > 100 | > 100 | > 100 | > 100
11 | Cc1ccc(CC(Cc2ccc(C)cc2C(=O)O)C(=O)O)cc1 (stereo not drawn) | > 100 | > 100 | > 100 | > 100 | > 100 | > 100 | > 100 | > 100 | > 100 | > 100 | > 100 | > 100 | > 100 | > 100 | > 100 | > 100 | > 100 | > 100 | > 100 | > 100
12 | Cn1c2ccccc2n2c3ccccc3c(=O)c(C#N)c12 | 13.6 | > 100 | > 100 | > 100 | > 100 | > 60.1 | > 100 | > 100 | > 61.1 | > 71.2 | > 87 | > 100 | > 100 | 49.9 | 58.1 | 41.9 | > 100 | > 100 | > 58.3 | > 100
13 | CC(C)(CC#N)c1cc(CC(C)(C)c2cc(CC(C)(C)c3cc(C(C)(C)C4(C)OCCO4)no3)no2)no1 | > 100 | > 100 | > 100 | > 100 | > 100 | > 100 | > 100 | > 100 | – | > 100 | > 100 | > 100 | > 100 | > 100 | > 100 | 99.7 | > 100 | > 100 | > 100 | 41.3
14 | C[C@H](CCC(=O)O)[C@H]1CC[C@H]2[C@@H]3[C@H](O)C[C@@H]4C[C@H](O)CC[C@]4(C)[C@H]3CC[C@]12C | > 100 | – | 45.7 | > 100 | > 100 | > 100 | > 100 | > 100 | 92 | 58.5 | > 100 | > 100 | > 100 | > 100 | > 100 | > 100 | > 100 | > 100 | > 100 | > 100
15 | CNC(=O)CNC(=O)C(Cc1ccc(NC(=O)CCCCC(C)=O)cc1)NC(=O)C(CCC(=O)OCc1ccccc1)NC(=O)OC(C)(C)C (stereo not drawn) | > 100 | > 100 | > 100 | > 100 | > 100 | > 100 | > 100 | > 100 | > 100 | > 100 | > 100 | > 100 | > 100 | > 100 | > 100 | > 100 | > 100 | – | > 100 | > 100
16 | COc1cc2ccc1OCc1cccc(n1)COc1ccc(cc1OC)C=Nc1ccc(cc1)-c1ccc(cc1)N=C2 | > 100 | > 100 | > 100 | > 100 | > 100 | > 100 | > 100 | – | > 100 | > 100 | > 100 | > 100 | > 100 | > 100 | > 100 | > 100 | > 100 | > 100 | > 100 | > 100
17 | O[C@H]1[C@H]2[C@H](O)C[C@H](CCOCc3ccccc3)CN2C[C@H]1O | > 100 | > 100 | > 100 | > 100 | > 100 | > 100 | > 100 | > 100 | > 100 | > 100 | > 100 | > 100 | > 100 | > 100 | > 100 | > 100 | – | > 100 | > 100 | > 100
18 | Cc1cc(=O)oc2c(C)c3oc(CBr)c(Br)c3cc12 | > 100 | > 100 | > 100 | > 100 | > 100 | 95.7 | > 100 | > 100 | 49 | 36.5 | 36.1 | > 100 | 52.1 | – | 30.2 | > 100 | > 100 | > 100 | 37.6 | 41.6
19 | O=C(O)c1cc(O)c2c(c1)C([C@@H]1c3cccc(O)c3C(=O)c3c(O)cc(C(=O)O)cc31)c1cccc(O)c1C2=O (stereo partly drawn) | > 100 | > 100 | > 100 | 91.8 | 41.5 | > 100 | > 100 | > 100 | > 100 | > 100 | 49.4 | – | > 100 | 44.7 | 44.6 | 95.8 | > 100 | > 100 | 78.6 | 85
20 | CC(=O)Oc1cc(C)c(OC(C)=O)c2c1[C@H]1CC[C@]3(C)[C@@H](OC(C)=O)CC[C@H]3[C@@H]1CC2 | 27.7 | 32.1 | – | 36.1 | 28.2 | 41.2 | 26.4 | 29.9 | 33.1 | 28.7 | 32.9 | 31.3 | 34.3 | 36 | 32.6 | 32.7 | 31.6 | 30 | 32.8 | 33.9
21 | COc1cccc(NC(=O)CC(=O)N2N=C(C)C(N=Nc3ccc(S(=O)(=O)CCOS(=O)(=O)O)cc3)C2=O)c1 (stereo not drawn) | 15.7 | 17 | 31.5 | 5.71 | 14 | > 100 | 31.9 | 16.9 | 17.9 | 24.5 | 17.3 | 12.1 | 12.7 | 23.2 | 2.48 | 25.6 | 18.9 | 23 | – | 15.9
22 | CCOC(=O)C1=COC(C)(c2ccccc2)CC1=O (stereo not drawn) | > 100 | > 100 | > 100 | > 100 | > 100 | > 100 | > 100 | > 100 | > 100 | > 100 | – | > 100 | > 100 | – | > 100 | > 100 | > 100 | > 100 | > 100 | > 100
23 | CCN(CC)c1ccc2cc(C(=O)Nc3nc(C45CC6CC(CC(C6)C4)C5)cs3)c(=O)oc2c1 | > 100 | > 100 | > 100 | > 100 | > 100 | > 100 | > 100 | > 100 | > 100 | > 100 | > 100 | > 100 | > 100 | > 100 | > 100 | > 100 | > 100 | > 100 | – | > 100
